According to patent publication US7166725B2, “Benzo[d]isoxazol-3-ol DAAO inhibitors” (Sepracor Inc., priority 2003, dated 2007):

How the values were obtained:
[1] = target: Purified pig DAAO (Sus scrofa, UniProt P00371); assay: In vitro measurements of DAAO activity (Amplex Red H2O2 fluorescence; alternative phenylglycine absorbance assay); assay type: biochemical; conditions: read-out: Inhibition of DAAO, IC50
Protocol: Purified pig DAAO, added to a buffered mixture of 50 mM D-Serine produces H202 in stoichiometric amounts for each D-Serine molecule oxidized. H202 production can be monitored with a commercially available dye Amplex Red, which in the presence of H202, is converted to the fluorescent product resorufin. For each described inhibitor, the fluorescence was also measured during additions of 80 μM H202 in the absence of DAAO, to control for artifactual inhibition of the dye conversion, and to quantify the amount of H202 produced. In an alternative assay of DAAO activity, the purified pig DAAO is added to buffered mixture of 1 mM phenylglycine in the presence of compounds. The activity of DAAO is monitored spectrophotometrically by its enzymatic conversion of phenylglycine to benzoylformic acid with optical absorption at 252 nm.
Inhibitors of DAAO's enzymatic cycle were serially diluted to reduce the level of inhibition. The parameters of a non-linear equation were adjusted to fit the resulting series of inhibition levels to extrapolate the concentration of compound where 50% inhibition is achieved (IC50). These numbers are averaged for the number (n) of independent measurements (on separate days) of the inhibition.

[2] = Rat brain uptake, left carotid artery perfusion; assay type: in vivo; conditions: 30 seconds perfusion in phosphate buffered saline pH 7.4; N of 4 rats
Text: Experiments that evaluate the rat brain penetration of test compounds use a perfusion system where the left carotid artery is cannulated and the branch arteries are tied off. The test compound plus internal controls are perfused for 30 seconds into the left hemisphere in phosphate buffered saline at pH 7.4. The internal controls are atenolol (with low brain uptake) and antipyrine (with high brain uptake). After a 30 second washout with perfusate, the brain is removed surgically. The left hemisphere is homogenized; test compounds (plus internal controls) are extracted from brain homogenate, and analyzed using LC/MS/MS to determine the concentration of test compound and internal controls in the brain.

[3] = target: T1, D-Serine's binding site on the NMDA receptor (Rattus norvegicus, UniProt P35439); assay: NMDA receptor affinity, [3H]MDL105,519 radioligand binding, rat cerebral cortex membranes; conditions: tested at 100 μM, read-out: inhibition of specific [3H]MDL105,519 binding
T1 construct: membranes prepared from rat cerebral cortex; from tissue; host or cells: rat cerebral cortex membranes
Protocol: To measure the affinity of the compounds reported herein for D-Serine's binding site on the NMDA receptor (also known as the “Glycine site” or the “strychnine-insensitive glycine site”), a radioligand-binding assay was performed with membranes prepared from rat cerebral cortex. The radioactive ligand was [3H]MDL105,519. The amount of radioactivity displaced by the compounds was assessed by scintillation counting. Non-specific binding is accounted for in the presence of 1 mM Glycine. Affinities are calculated from the values of % inhibition of specific [3H]MDL105,519 binding by the test compounds.

Sequence of Purified pig DAAO (P00371 whole entry): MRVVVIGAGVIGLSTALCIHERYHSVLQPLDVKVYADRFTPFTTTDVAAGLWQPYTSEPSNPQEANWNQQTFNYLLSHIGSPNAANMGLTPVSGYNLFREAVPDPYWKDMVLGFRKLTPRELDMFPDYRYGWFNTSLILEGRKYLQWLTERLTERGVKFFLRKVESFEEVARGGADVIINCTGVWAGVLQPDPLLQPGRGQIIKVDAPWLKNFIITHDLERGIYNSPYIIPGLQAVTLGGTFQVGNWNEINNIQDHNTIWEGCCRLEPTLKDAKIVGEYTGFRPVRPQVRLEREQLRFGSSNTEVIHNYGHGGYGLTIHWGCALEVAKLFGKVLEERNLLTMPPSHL

With `Cc1cccc2c(O)noc12` the IC50 [1] was > 100 µM.
In the case of `Oc1noc2cc(Cl)c(Br)cc12`, the IC50 [1] is reported as < 0.1 µM.
In the case of `Oc1noc2cccc(F)c12`, the IC50 [1] is reported as < 10 µM.
In the case of `N#Cc1ccc2onc(O)c2c1`, the IC50 [1] is reported as < 100 µM.
With `Oc1cccc2onc(O)c12` the IC50 [1] was > 100 µM.
In the case of `O=C(Nc1ccc2onc(O)c2c1)OCc1ccccc1`, the IC50 [1] is reported as > 100 µM.
With `Oc1noc2ccc(CCc3ccccc3)cc12` the IC50 [1] was < 100 µM.
With `Cc1ccc2onc(O)c2c1` the IC50 [1] was < 10 µM.
For `Oc1noc2cc(Cl)c(Cl)cc12`, the IC50 [1] was < 0.1 µM.
With `Oc1noc2cc(Cl)ccc12` [drawing 49] the “Rat Brain Uptake Rate” value [2] was 162 pmol/g brain/sec.
With `COc1ccc2onc(O)c2c1` the IC50 [1] was < 10 µM.
For `COc1cccc2onc(O)c12`, the IC50 [1] was < 100 µM.
For `Cc1ccc2c(O)noc2c1` [drawing 48], the “Rat Brain Uptake Rate” value [2] was 199 pmol/g brain/sec.
For `Oc1noc2ccc(F)cc12`, the IC50 [1] was < 1 µM.
With `Oc1noc2cc(Cl)ccc12` [drawing 47] the inhibition at 100 µM [3] was < 10%.
For `O=C(Nc1ccc2c(O)noc2c1)OCc1ccccc1`, the IC50 [1] was > 100 µM.
For `COc1cccc2c(O)noc12`, the IC50 [1] was < 100 µM.
For `Oc1noc2ccc(OCc3ccccc3)cc12`, the IC50 [1] was < 10 µM.
For `O=C(O)c1cc2ccccc2[nH]1` [INDOLE-2-CARBOXYLIC ACID, reference compound], the inhibition at 100 µM [3] was 77% and the IC50 [1] was < 10 µM.
With `COc1ccc2c(O)noc2c1` the IC50 [1] was < 10 µM.
In the case of `Oc1noc2c(Cl)cccc12`, the IC50 [1] is reported as > 100 µM.
In the case of `Oc1noc2cc(OCc3ccccc3)ccc12`, the IC50 [1] is reported as > 100 µM.
With `Oc1ccc2onc(O)c2c1` the IC50 [1] was > 100 µM.
With `Oc1noc2ccc(Cl)cc12` the IC50 [1] was < 1 µM.
In the case of `Oc1noc2ccc(Br)cc12`, the IC50 [1] is reported as < 1 µM.
For `O=C(O)c1ccc[nH]1` [PYRROLE-2-CARBOXYLIC ACID, reference compound], the IC50 [1] was < 10 µM.
In the case of `Oc1noc2cc(Br)c(Br)cc12`, the IC50 [1] is reported as < 0.1 µM.
With `Oc1noc2cc(Br)c(Cl)cc12` the IC50 [1] was < 0.1 µM.
In the case of `Cc1cc2onc(O)c2cc1Cl`, the IC50 [1] is reported as < 0.1 µM.
With `Oc1noc2c(O)cccc12` the IC50 [1] was < 100 µM.
For `Oc1ccc2c(O)noc2c1`, the IC50 [1] was < 10 µM.
In the case of `Oc1noc2c(F)cccc12`, the IC50 [1] is reported as < 100 µM.
In the case of `Oc1noc2cc(F)ccc12`, the IC50 [1] is reported as < 1 µM.
For `Cc1cc2onc(O)c2cc1Br`, the IC50 [1] was < 0.1 µM.
With `Oc1noc2cc(Cl)ccc12` [drawing 38] the IC50 [1] was < 0.1 µM.
In the case of `Oc1noc2ccccc12`, the IC50 [1] is reported as < 1 µM.
For `Oc1noc2cc(Br)ccc12`, the IC50 [1] was < 1 µM.
With `Cc1ccc2c(O)noc2c1` [drawing 22] the IC50 [1] was < 1 µM.
In the case of `Cc1cc2onc(O)c2cc1I`, the IC50 [1] is reported as < 0.1 µM.
With `Oc1noc2ccc(I)cc12` the IC50 [1] was < 10 µM.
